Results reported in ChEMBL document CHEMBL5380880, “Novel drug-like fluorenyl derivatives as selective butyrylcholinesterase and β-amyloid inhibitors for the treatment of Alzheimer's disease” (Bioorg Med Chem, 2023).
Calls of active or inactive are those of the source. The rule behind the calls is not given here.

Experiments:
[1] = Lipophilicity, logP of compound; assay type: physicochemical; details: octanol/water
[2] = Lipophilicity, logD of compound at pH 7.4; assay type: physicochemical; details: buffer
[3] = target: Amyloid-beta precursor protein (Homo sapiens) (UniProt P05067); assay: Inhibition of amyloid beta (unknown origin) aggregation at 10 uM incubated for 5 mins by thioflavin fluorescent based analysis relative to control
[4] = target: Cholinesterase (Equus caballus, UniProt P81908); assay: Inhibition of equine serum BuChE by Ellman's method
[5] = target: Acetylcholinesterase (Electrophorus electricus) (UniProt O42275); assay: Inhibition of Electric eel AChE relative to control; details: concentration not given here
[6] = target: Cholinesterase (Equus caballus) (UniProt P81908); assay: Inhibition of equine serum BuChE at 10 uM by Ellman's method relative to control
[7] = target: Cholinesterase (Equus caballus) (UniProt P81908); assay: Inhibition of equine serum BuChE

Amyloid-beta precursor protein (Homo sapiens), sequence (P05067 whole entry): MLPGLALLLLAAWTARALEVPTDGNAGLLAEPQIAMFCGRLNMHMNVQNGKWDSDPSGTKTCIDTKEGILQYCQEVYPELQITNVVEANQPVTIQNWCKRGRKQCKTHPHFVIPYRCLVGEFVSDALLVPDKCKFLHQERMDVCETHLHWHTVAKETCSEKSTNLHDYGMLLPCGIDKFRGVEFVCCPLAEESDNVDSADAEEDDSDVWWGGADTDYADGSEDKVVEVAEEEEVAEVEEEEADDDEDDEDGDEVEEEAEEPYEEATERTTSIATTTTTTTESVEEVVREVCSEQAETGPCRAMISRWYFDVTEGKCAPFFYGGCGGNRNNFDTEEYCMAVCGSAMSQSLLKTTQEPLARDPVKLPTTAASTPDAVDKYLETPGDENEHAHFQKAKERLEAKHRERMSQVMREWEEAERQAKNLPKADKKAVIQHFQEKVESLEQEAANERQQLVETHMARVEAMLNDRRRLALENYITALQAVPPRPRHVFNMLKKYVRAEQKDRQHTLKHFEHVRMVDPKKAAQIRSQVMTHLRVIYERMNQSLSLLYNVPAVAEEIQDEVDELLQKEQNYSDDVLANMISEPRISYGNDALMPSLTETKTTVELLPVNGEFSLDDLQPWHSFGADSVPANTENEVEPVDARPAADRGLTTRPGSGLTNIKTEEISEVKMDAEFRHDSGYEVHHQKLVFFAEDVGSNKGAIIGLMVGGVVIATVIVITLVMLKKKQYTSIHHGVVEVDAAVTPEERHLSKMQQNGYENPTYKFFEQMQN
Cholinesterase, sequence (P81908 whole entry): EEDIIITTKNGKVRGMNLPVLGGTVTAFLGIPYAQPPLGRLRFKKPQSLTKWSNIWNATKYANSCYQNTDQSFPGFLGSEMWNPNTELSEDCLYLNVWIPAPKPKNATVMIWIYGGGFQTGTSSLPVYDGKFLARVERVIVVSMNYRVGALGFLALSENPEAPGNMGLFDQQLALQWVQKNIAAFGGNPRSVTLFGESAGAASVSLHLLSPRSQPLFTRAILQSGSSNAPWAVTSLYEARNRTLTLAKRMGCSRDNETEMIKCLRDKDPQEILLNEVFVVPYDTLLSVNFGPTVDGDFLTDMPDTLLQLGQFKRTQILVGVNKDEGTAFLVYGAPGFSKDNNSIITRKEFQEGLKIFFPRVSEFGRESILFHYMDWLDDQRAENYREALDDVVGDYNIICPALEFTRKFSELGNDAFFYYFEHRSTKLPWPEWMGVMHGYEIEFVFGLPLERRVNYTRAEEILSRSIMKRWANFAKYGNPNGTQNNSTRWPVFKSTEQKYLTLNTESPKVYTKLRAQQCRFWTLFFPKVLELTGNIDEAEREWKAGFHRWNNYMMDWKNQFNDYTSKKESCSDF
Cholinesterase (Equus caballus), sequence (P81908 whole entry): as above
Acetylcholinesterase (Electrophorus electricus), sequence (O42275 24-633 limits assumed): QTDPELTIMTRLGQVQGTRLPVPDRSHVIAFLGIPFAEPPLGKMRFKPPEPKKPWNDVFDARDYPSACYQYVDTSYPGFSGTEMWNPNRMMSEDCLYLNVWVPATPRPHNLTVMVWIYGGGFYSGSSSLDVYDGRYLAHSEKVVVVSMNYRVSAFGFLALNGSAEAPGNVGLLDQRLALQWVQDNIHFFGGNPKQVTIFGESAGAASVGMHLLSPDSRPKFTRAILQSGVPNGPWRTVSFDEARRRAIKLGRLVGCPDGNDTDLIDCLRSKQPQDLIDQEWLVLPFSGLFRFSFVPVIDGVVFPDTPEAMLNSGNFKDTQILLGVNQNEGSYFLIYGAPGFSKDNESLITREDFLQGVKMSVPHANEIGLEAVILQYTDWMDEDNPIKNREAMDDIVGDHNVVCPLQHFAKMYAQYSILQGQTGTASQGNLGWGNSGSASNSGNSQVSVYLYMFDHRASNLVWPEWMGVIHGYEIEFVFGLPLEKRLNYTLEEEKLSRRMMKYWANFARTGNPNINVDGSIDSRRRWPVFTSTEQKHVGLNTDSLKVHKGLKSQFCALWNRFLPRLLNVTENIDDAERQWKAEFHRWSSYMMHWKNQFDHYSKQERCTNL

`CC(C)(C)c1cccc(CNCC(O)CNCCC(c2ccccc2)c2ccccc2)c1` (centres undefined) gave a logP [1] of 5.96, a logD [2] of 3.7 and an inhibition [3] of 4.6%.

`O=C(CC(c1ccccc1)c1ccccc1)NCC(O)CNCC1CCCCC1` (centres undefined) showed a logD [2] of 1.43, an inhibition [3] of 4.6% and an IC50 [4] of 78 nM.

`O=C(NC[C@@H](O)CNCC1CCCCCC1)C1c2ccccc2-c2ccccc21` gave an inhibition [3] of 4.6% and an IC50 [4] of 31 nM.

Compound `O=C(NC[C@H](O)CNCC1CCCCCC1)C1c2ccccc2-c2ccccc21` has an inhibition [3] of 4.6% and an IC50 [4] of 288 nM.

With `Nc1c2c(nc3ccccc13)CCCC2` the inhibition [3] was 4.6%.

Work on `CC(C)(C)CNCC(O)CNC(=O)CC1c2ccccc2-c2ccccc21` (racemic) yielded a logD [2] of 0.73, an inhibition [3] of 4.6% and an IC50 [4] of 672 nM.

In the case of `O=C(NCC(O)CNCC1CCCCC1)C1c2ccccc2-c2ccccc21` (racemic), the logD [2] is reported as 0.91, the inhibition [3] is reported as 4.6% and the IC50 [4] is reported as 231 nM.

Compound `O=C(NCC(O)CNCCC1CCCCC1)C1c2ccccc2-c2ccccc21` (racemic) has a logD [2] of 1.41, an inhibition [3] of 60.7% and an IC50 [4] of 475 nM.

In the case of `O=C(CC1c2ccccc2-c2ccccc21)NCC(O)CNCCC1CCCCC1` (racemic), the logD [2] is reported as 1.6, the inhibition [3] is reported as 4.6% and the IC50 [4] is reported as 422 nM.

Compound `O=C(NCC(O)CNCC1CCCCCC1)C1c2ccccc2-c2ccccc21` (racemic) has a logD [2] of 1.36, an inhibition [3] of 4.6% and an IC50 [4] of 38 nM.

With `O=C(CC1c2ccccc2-c2ccccc21)NCC(O)CNCC1CCCCCC1` (racemic) the logD [2] was 1.55, the inhibition [3] was 4.6% and the IC50 [4] was 1090 nM.

For `O=C(CC1c2ccccc2-c2ccccc21)NCC(O)CNCC1CCCCC1` (racemic), the logD [2] was 1.1, the inhibition [3] was 4.6% and the IC50 [4] was 1690 nM.

In the case of `O=C(CC1c2ccccc2-c2ccccc21)NCC(O)CNCC1CC1` (racemic), the inhibition [5] is reported as greater than 20%, the inhibition [6] is reported as 44.5% and the logD [2] is reported as -0.1. For the same compound, the inhibition [7] was “inactive” and the inhibition [3] was 4.6%.

`O=C(NCC(O)CNCc1ccccc1)C1c2ccccc2-c2ccccc21` (racemic) showed a logD [2] of 1.78, an inhibition [3] of 4.6% and an IC50 [4] of 627 nM.

For `O=C(CC1c2ccccc2-c2ccccc21)NCC(O)CNC1CCCCC1` (racemic), the logD [2] was 0.79, the inhibition [3] was 4.6% and the IC50 [4] was 1490 nM.

For `CC(C)(C)CNCC(O)CNC(=O)C1c2ccccc2-c2ccccc21` (racemic), the logD [2] was 0.54, the inhibition [3] was 4.6% and the IC50 [4] was 385 nM.

`O=C(CC1c2ccccc2-c2ccccc21)NCC(O)CNCC1CCCC1` (racemic) gave a logD [2] of 0.66, an inhibition [3] of 4.6% and an IC50 [4] of 1710 nM.

In the case of `O=C(CC1c2ccccc2-c2ccccc21)NCC(O)CNCc1ccccc1` (racemic), the logD [2] is reported as 1.88, the inhibition [3] is reported as 4.6% and the IC50 [4] is reported as 4330 nM.

Work on `O=C(NCC(O)CNCC1CC1)C1c2ccccc2-c2ccccc21` (racemic) yielded a logD [2] of -0.29, an inhibition [3] of 4.6% and an IC50 [4] of 435 nM.

For `O=C(NCC(O)CNC1CCCCC1)C1c2ccccc2-c2ccccc21` (racemic), the logD [2] was 0.6, the inhibition [3] was 4.6% and the IC50 [4] was 336 nM.

In the case of `O=C(NCC(O)CNCC1CCCC1)C1c2ccccc2-c2ccccc21` (racemic), the logD [2] is reported as 0.47, the inhibition [3] is reported as 4.6% and the IC50 [4] is reported as 379 nM.

`O=C(NCC(O)CNCC(F)(F)F)C1c2ccccc2-c2ccccc21` (racemic) gave a logD [2] of 2.33, an inhibition [3] of 67.6% and an IC50 [4] of 12900 nM.
